Laboratory results as given in patent publication US12599134B2, “Herbicidal compositions comprising acetochlor” (BASF SE, priority 2024, dated 2026).

System: emerged weeds
Assay: Post-emergence application in greenhouse trials (scale 0 to 100; expected value by Colby)
Assay type: in vivo
Procedure: In the examples below, using the method of S. R. Colby (1967) “Calculating synergistic and antagonistic responses of herbicide combinations”, Weeds 15, p. 22ff., the value E, which is expected if the activity of the individual active compounds is only additive, was calculated:
[formula] • where • X=percent activity using active herbicide A at an application rate a; • Y=percent activity using active herbicide B (e.g. acetochlor) at an application rate b; • E=expected activity (in %) by A+B at application rates a+b.
If the value found experimentally is higher than the value E calculated according to Colby, a synergistic effect is present.
The culture containers used were plastic pots containing loamy sand with approximately 3.0% of humus as substrate. The seeds of the test plants were sown separately for each species.
[…] To this end, the test plants were either sown directly, and grown in the same containers, or they were first grown separately as seedlings and transplanted into the test containers a few days prior to treatment.
Depending on the species, the plants were kept at 10-25° C. and 20-35° C., respectively. The test period extended over 2 to 4 weeks. During this time, the plants were tended and their response to the individual treatments was evaluated.
Evaluation was carried out using a scale from 0 to 100. 100 means no emergence of the plants, or complete destruction of at least the above-ground parts, and 0 means no damage or normal course of growth. A good herbicidal activity is given at values of at least 70, and very good herbicidal activity is given at values of at least 85.
Herbicide A-1 and acetochlor were, together with addition of 0.5% MSO (methylated sed oil) as adjuvant, formulated in water as distribution medium (water volume 200 l/ha) and sprayed with commercial flat fan nozzles.
Herbicide A-1, acetochlor and mesotrione were, together with addition of 0.5 v/v % MSO (methylated sed oil) as adjuvant, formulated in water as distribution medium (water volume 200 l/ha) and sprayed with commercial flat fan nozzles.
Herbicide A-1, acetochlor and topramezone were, together with addition of 0.5 v/v % MSO (methylated sed oil) as adjuvant, formulated in water as distribution medium (water volume 200 l/ha) and sprayed with commercial flat fan nozzles.

With `CS(=O)(=O)c1ccc(C(=O)C2C(=O)CCCC2=O)c([N+](=O)[O-])c1` [C-24, mesotrione] the “% Herbicidal activity” value (ABUTH, growth stage 15, 7 DAT, g ai/ha: A-1 0.5, B 200, C-24 50) was 60%, the “% Herbicidal activity” value (ABUTH, growth stage 15, 21 DAT, g ai/ha: A-1 0.25, B 200, C-24 50) was 90% and the “% Herbicidal activity” value (AVEFA, growth stage 11, 21 DAT, g ai/ha: A-1 2, B 200, C-24 50) was 10%. The “% Herbicidal activity” value (COMBE, growth stage 13, 21 DAT, g ai/ha: A-1 1, B 200, C-24 50) was 90%, the “% Herbicidal activity” value (ECHCG, growth stage 12, 21 DAT, g ai/ha: A-1 2, B 200, C-24 50) was 95% and the “% Herbicidal activity” value (ZEAMX, growth stage 12, 21 DAT, g ai/ha: A-1 2, B 200, C-24 50) was 0%.

`Cc1c(C(=O)c2cnn(C)c2O)ccc(S(C)(=O)=O)c1C1=NOCC1` [C-25, topramezone] was tested, and the “% Herbicidal activity” value (ABUTH, growth stage 15, 7 DAT, g ai/ha: A-1 0.5, B 200, C-25 3.125) was 50%, the “% Herbicidal activity” value (AVEFA, growth stage 11, 7 DAT, g ai/ha: A-1 2, B 200, C-25 3.125) was 10% and the “% Herbicidal activity” value (AVEFA, growth stage 11, 21 DAT, g ai/ha: A-1 2, B 200, C-25 3.125) was 10%. The “% Herbicidal activity” value (BRADC, growth stage 11, 21 DAT, g ai/ha: A-1 2, B 200, C-25 3.125) was 55%, the “% Herbicidal activity” value (COMBE, growth stage 13, 21 DAT, g ai/ha: A-1 1, B 200, C-25 3.125) was 35% and the “% Herbicidal activity” value (ECHCG, growth stage 12, 21 DAT, g ai/ha: A-1 2, B 200, C-25 3.125) was 80%. The “% Herbicidal activity” value (ERICA, growth stage 19, 7 DAT, g ai/ha: A-1 2, B 200, C-25 3.125) was 35%, the “% Herbicidal activity” value (GLXMA, growth stage 18, 7 DAT, g ai/ha: A-1 1, B 200, C-25 3.125) was 20% and the “% Herbicidal activity” value (KCHSC, growth stage 29, 21 DAT, g ai/ha: A-1 1, B 200, C-25 3.125) was 10%. For the same compound, the “% Herbicidal activity” value (KCHSC, growth stage 29, 21 DAT, g ai/ha: A-1 2, B 200, C-25 3.125) was 10%, the “% Herbicidal activity” value (LOLMU, growth stage 11, 7 DAT, g ai/ha: A-1 2, B 200, C-25 3.125) was 0% and the “% Herbicidal activity” value (LOLMU, growth stage 11, 21 DAT, g ai/ha: A-1 2, B 200, C-25 3.125) was 0%. For the same compound, the “% Herbicidal activity” value (ZEAMX, growth stage 12, 21 DAT, g ai/ha: A-1 2, B 200, C-25 3.125) was 0%.
